Assay [1] relates to Wnt activity (Sp5-Luc reporter in SW480 cells). As to the kind of experiment: Screening assay for Wnt activity: Sp5-Luc reporter gene assay in SW480 colon carcinoma cells. To be noted: Homo sapiens, 36 to 48 hours. It counts as cell-based, human. The text has this:
The screening assay for Wnt activity is described as follows. Reporter cell lines can be generated by stably transducing cancer cell lines (e.g., colon cancer) or primary cells (e.g., IEC-6 intestinal cells) with a lentiviral construct that includes a Wnt-responsive promoter driving expression of the firefly luciferase gene.
SW480 colon carcinoma cells were transduced with a lentiviral vector expressing luciferase with a human Sp5 promoter consisting of a sequence of eight TCF/LEF binding sites. SW480 cells stably expressing the Sp5-Luc reporter gene and a hygromycin resistance gene were selected by treatment with 150 μg/mL of hygromycin for 7 days. These stably transduced SW480 cells were expanded in cell culture and used for all further screening activities. […] For Sp5-Luc reporter gene assays, the cells were plated at 4,000 cells/well in 384-well plates with a DMEM medium containing 1% fetal bovine serum, and 1% Penicillin-Streptomycin and incubated for 36 to 48 hours at 37° C. and 5% CO2. Following incubation, 15 μl of BriteLite Plus luminescence reagent (Perkin Elmer) was added to each well of the 384-well assay plates. The plates were placed on an orbital shaker for 2 min and then luminescence was quantified using the Envision (Perkin Elmer) plate reader. Readings were normalized to DMSO only treated cells, and normalized activities were utilized for EC50 calculations using the dose-response log (inhibitor) vs. response-variable slope (four parameters) nonlinear regression feature available in GraphPad Prism 5.0 (or Dotmatics).

Assay [2] has as its target DYRK1A kinase (Homo sapiens (Human), UniProt Q13627). The experiment in a line: DYRK1A kinase assay (Ser/Thr 18 peptide Z-lyte FRET). It is filed as biochemical. To be noted: read-out: EC50 (method: IC50). The procedure: Representative compounds were screened using the assay procedure for DYRK1A kinase activity as described below.
This is a non-radioactive assay using fluorescence resonance energy transfer (FRET) between coumarin and fluorescein to detect kinase activity which is represented as a ratio of coumarin emission/fluorescein emission.
The mixture was allowed to incubate with the representative compounds for one hour at room temperature. All reactions were performed in duplicate. Unphosphorylated (“0% Control”) and phosphorylated (“100% control”) forms of Ser/Thr 18 served as control reactions. Additionally, an 11-point dose-response curve of Staurosporine (1 uM top) was run to serve as a positive compound control.
After incubation, Development Reagent A was diluted in Development Buffer then added to the reaction and allowed to further incubate for one hour at room temperature.

Assay [3] deals with GSK3β kinase (Homo sapiens (Human), UniProt P49841). As to the kind of experiment: GSK3β kinase assay (Ser/Thr 09 peptide Z-lyte FRET). It is filed as biochemical. The settings on record: read-out: EC50 (method: IC50). The procedure:
Representative compounds were screened using the assay procedure for GSK3β kinase activity as described below.
This is a non-radioactive assay using fluorescence resonance energy transfer (FRET) between coumarin and fluorescein to detect kinase activity which is represented as ratio of coumarin emission/fluorescein emission.
The mixture is allowed to incubate with the representative compounds for one hour at room temperature. All reactions were performed in duplicate. Unphosphorylated (“0% Control”) and phosphorylated (“100% control”) forms of Ser/Thr 18 serve as control reactions.
After incubation, diluted Development Buffer is added to the reaction and allowed to further incubate for one hour at room temperature.
Dose-response curves are generated and inhibitory concentration (IC50) values are calculated using non-linear regression curve fit in the Dotmatics' Studies Software (Bishops Stortford, UK).

The test system of assay [4] is SW480 colon carcinoma cells. As to the kind of experiment: Cell viability assay (CellTiter-Glo) in SW480 colon carcinoma cells. It counts as cell-based, human. The settings on record: Homo sapiens, 96 h, four days. The procedure: Representative compounds were screened using the assay procedure to assess the effect on cell viability as described below.
SW480 colon carcinoma cells were transduced with a lentiviral vector expressing luciferase with a human Sp5 promoter consisting of a sequence of eight TCF/LEF binding sites. SW480 cells stably expressing the Sp5-Luc reporter gene and a hygromycin resistance gene were selected by treatment with 150 μg/mL of hygromycin for 7 days. These stably transduced SW480 cells were expanded in cell culture and used for all further screening activities.
For the Cell Viability Assays, the cells were plated at 2,000 cells/well in 384-well plates with a DMEM medium containing 1% fetal bovine serum, and 1% Penicillin-Streptomycin and incubated for […] at 37° C. and 5% CO2. Eight replicates of DMSO-treated cells served as controls and cells treated with compound were performed in duplicate.
After incubation, 10 μL of CellTiter-Glo (Promega) was added to each well allowed to incubate for approximately 12 minutes. This reagent “results in cell lysis and generation of a luminescent signal proportional to the amount of ATP present. The amount of ATP is directly proportional to the number of cells present in culture, in agreement with previous reports. The CellTiter-Glo® Assay generates a “glow-type” luminescent signal, produced by the luciferase reaction (Promega.com)”.

Assay [5] has as its system primary human fibroblasts derived from IPF patients (LL29 cells). The experiment in a line: Inhibition of the fibrotic process: αSMA staining in TGF-β1 treated LL29 fibroblasts. It counts as cell-based. To be noted: Homo sapiens, Fibroblast, 96 h; LL29 cells, TGF-β1 20 ng/mL, 4 days, % αSMA positive cells. The procedure:
Representative compounds were screened using primary human fibroblasts (derived from IPF patients) treated with TGF-β1 to determine their ability to inhibit the fibrotic process.
LL29 cells were plated at 1,500 cells/well in 70 μL/well F12 medium supplemented with 1% Fetal Bovine Serum. […] Wells treated with TGF-β1 and containing DMSO were used as positive control, and cells with only DMSO were negative control. […] Following incubation for 4 days, SYTOX green nucleic acid stain (Life Technologies [Thermo Fisher Scientific]) was added to the wells at a final concentration of 1 μM and incubated at room temperature for 30 min.

The subject of assay [6] is IL-6. The experiment in a line: IL-6 inhibition in LPS-stimulated human peripheral blood mononuclear cells (HTRF). It counts as cell-based. To be noted: Homo sapiens, PBMC; for EC50: huPBMCs, LPS 50 ng/mL, 22 hours, IL-6 HTRF; for inhibition at 10 µM: read-out: percent inhibition at 10 μM. The procedure: Fresh Normal PB MNC (Catalog #PB001, AllCells, Alameda, Calif.) were shipped overnight at 4° C. and resuspended in Roswell Park Memorial Institute (RPMI) 1640 Medium, with GlutaMAX Supplement (Catalog #61870127, ThermoFisher Scientific, Waltham, Mass.) supplemented with 1% Penicillin-Streptomycin (Catalog #15140163. ThermoFisher Scientific, Waltham, Mass.) and 1% fetal bovine serum (FBS) (Catalog #16140089, ThermoFisher Scientific, Waltham, Mass.) assay media. Fresh normal human peripheral blood mononuclear cells (huPBMCs) were resuspended in 1% FBS-RPMI assay media with 1% Penicillin-Streptomycin 1% to a cell concentration of 1×10e6 cells/mL. […] 50 ng/mL of Lipopolysaccharides from Escherichia coli 0111:B4 (Catalog #L5293-2ML, Sigma-Aldrich, St. Louis, Mo.) was added after 2 hours and cells were incubated for another 22 hours at 37° C.-5% CO2. After 22 hour incubation, a mixture of anti-IL6 XL665 and anti-IL-6 Cryptate diluted in reconstitution buffer (Catalog #62IL6PEC, Cisbio Inc., Bedford, Mass.) was added to each well. Following incubation for 3 hours at room temperature, Homogeneous Time-Resolved Fluorescence (HTRF) was measured using the Envision (Perkin Elmer, Shelton, Conn.) at 665 nm and […]. The ratio of fluorescence at 665 nm to 620 nm was used as a readout for IL-6 quantification. All samples were processed in duplicate. Readings were normalized to DMSO treated cells and normalized activities were utilized for EC50 calculations.
For orientation: In TR-FRET formats the signal depends on donor and acceptor labels being close together.

GSK3β kinase, sequence (P49841 whole entry): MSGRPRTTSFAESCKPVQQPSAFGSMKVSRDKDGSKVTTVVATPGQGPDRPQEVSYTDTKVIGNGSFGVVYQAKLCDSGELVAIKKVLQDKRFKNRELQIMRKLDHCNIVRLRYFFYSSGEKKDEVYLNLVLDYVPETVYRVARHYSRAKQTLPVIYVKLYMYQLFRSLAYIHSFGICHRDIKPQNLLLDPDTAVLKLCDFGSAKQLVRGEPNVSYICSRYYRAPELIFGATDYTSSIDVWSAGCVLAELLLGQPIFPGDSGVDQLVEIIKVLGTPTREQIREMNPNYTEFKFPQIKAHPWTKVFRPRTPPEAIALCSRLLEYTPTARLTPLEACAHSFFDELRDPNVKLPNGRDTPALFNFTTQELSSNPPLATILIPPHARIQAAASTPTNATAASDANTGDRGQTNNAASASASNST

As usually defined, the EC50 is the midpoint of the concentration-response curve. A higher EC50 goes with weaker potency. By IC50 is commonly meant the concentration that inhibits the measured activity by half. For the compound `O=C(N[C@@H]1CCCC[C@H]1F)c1n[nH]c2ccc(-c3cnn(C4CC4)c3)cc12` [Compound 12, 5-(1-Cyclopropyl-1H-pyrazol-4-yl)-N-((1R,2R)-2-fluorocyclohexyl)-1H-indazole-3-carboxamide], the EC50 was found to be 5470 nM in assay [1], 2260 nM in assay [4], 621 nM in assay [5] and 1160 nM in assay [6]. For the same compound, the IC50 in assay [2] amounted to 171 nM; in assay [3], 38 nM.

As for `Cc1ncc(-c2ccc3[nH]nc(C(=O)N[C@@H]4CCCC[C@H]4F)c3c2)n1C` [Compound 13, 5-(1,2-Dimethyl-1H-imidazol-5-yl)-N-((1R,2R)-2-fluorocyclohexyl)-1H-indazole-3-carboxamide], the EC50 in assay [1] was over 10000 nM; in assay [4], over 10000 nM; in assay [5], 1390 nM; in assay [6], over 10000 nM. Moreover, the IC50 in assay [2] was found to be 46 nM; in assay [3], 24 nM.

As to `Cn1cc(-c2ccc3[nH]nc(C(=O)NC4CCC(F)(F)CC4)c3c2)cn1` [Compound 14, N-(4,4-Difluorocyclohexyl)-5-(1-methyl-1H-pyrazol-4-yl)-1H-indazole-3-carboxamide], the EC50 in assay [1] was 903 nM; in assay [4], over 10000 nM; in assay [5], 114 nM; in assay [6], 3540 nM. Further, the concentration for half-maximal inhibition (IC50) turned out to be 18 nM in assay [2] and 23 nM in assay [3].

As to `Cn1cc(-c2cc3c(C(=O)NC4CCC(F)(F)CC4)n[nH]c3cc2F)cn1` [Compound 15, N-(4,4-Difluorocyclohexyl)-6-fluoro-5-(1-methyl-1H-pyrazol-4-yl)-1H-indazole-3-carboxamide], the concentration giving a half-maximal response (EC50) in assay [1] is over 10000 nM; in assay [4] it was 2600 nM; in assay [5] it was 3320 nM; in assay [6], 3550 nM. The IC50 in assay [2] stood at 36 nM; in assay [3], 58 nM.

Regarding `CCn1cc(-c2ccc3[nH]nc(C(=O)NC4CCC(F)(F)CC4)c3c2)cn1` [Compound 18, N-(4,4-Difluorocyclohexyl)-5-(1-ethyl-1H-pyrazol-4-yl)-1H-indazole-3-carboxamide], the EC50 was determined as 801 nM in assay [1], 7460 nM in assay [4], 950 nM in assay [5] and 3820 nM in assay [6]. For the same compound, the IC50 amounted to 121 nM in assay [2] and 60 nM in assay [3].

On to `O=C(NC1CCC(F)(F)CC1)c1n[nH]c2ccc(-c3cnn(C4CC4)c3)cc12` [Compound 19, 5-(1-Cyclopropyl-1H-pyrazol-4-yl)-N-(4,4-difluorocyclohexyl)-1H-indazole-3-carboxamide], for which the concentration for a half-maximal effect (EC50) in assay [1] came to 1050 nM; in assay [4] it was 3070 nM; in assay [5], 1180 nM; in assay [6], 3680 nM. Further, the IC50 in assay [2] came out at 117 nM; in assay [3], 64 nM.

Usually inhibition stands for the drop in the measured response relative to a control, in per cent. With `Cc1c(-c2ccc3[nH]nc(C(=O)NC4CCC(F)(F)CC4)c3c2)cnn1C` [Compound 20, N-(4,4-Difluorocyclohexyl)-5-(1,5-dimethyl-1H-pyrazol-4-yl)-1H-indazole-3-carboxamide], the EC50 was over 10000 nM in assay [1], over 10000 nM in assay [4], 3410 nM in assay [5] and over 10000 nM in assay [6]. For the same compound, the IC50 in assay [2] amounted to 13 nM; in assay [3] it was 21 nM. In addition, in assay [6], the inhibition at 10 µM is 36.4%.

With `Cc1nn(C)cc1-c1ccc2[nH]nc(C(=O)NC3CCC(F)(F)CC3)c2c1` [Compound 21, N-(4,4-Difluorocyclohexyl)-5-(1,3-dimethyl-1H-pyrazol-4-yl)-1H-indazole-3-carboxamide], the EC50 in assay [1] was over 10000 nM; in assay [4], over 10000 nM; in assay [5] it was 294 nM; in assay [6] it was over 10000 nM. Also, the IC50 in assay [2] amounted to 1820 nM; in assay [3], 903 nM. In addition, the inhibition at 10 µM in assay [6] amounted to 15.5%.

On to `Cc1ncc(-c2ccc3[nH]nc(C(=O)NC4CCC(F)(F)CC4)c3c2)n1C` [Compound 22, N-(4,4-Difluorocyclohexyl)-5-(1,2-dimethyl-1H-imidazol-5-yl)-1H-indazole-3-carboxamide], for which the EC50 in assay [1] is 2010 nM; in assay [4] it was over 10000 nM; in assay [5], 2200 nM; in assay [6] it was over 10000 nM. The figures for the IC50 in assay [2] and in assay [3] were 25 nM and 61 nM, respectively. Besides, the inhibition at 10 µM in assay [6] came out at 10.2%.

Regarding `Cn1cc(-c2ccc3[nH]nc(C(=O)N[C@H]4CC[C@H](CN5CC(F)C5)CC4)c3c2)cn1` [Compound 23, N-((1R,4R)-4-((3-Fluoroazetidin-1-yl)methyl)cyclohexyl)-5-(1-methyl-1H-pyrazol-4-yl)-1H-indazole-3-carboxamide], the EC50 in assay [1] amounted to 768 nM; in assay [4], 409 nM; in assay [5], 149 nM; in assay [6] it was 345 nM. Moreover, the results for the IC50 in assay [2] and in assay [3] were 1 nM and 5 nM, respectively.

`Cn1cc(-c2cc3c(C(=O)N[C@H]4CC[C@H](CN5CC(F)C5)CC4)n[nH]c3cc2F)cn1` [Compound 24, 6-fluoro-N-((1R,4R)-4-((3-fluoroazetidin-1-yl)methyl)cyclohexyl)-5-(1-methyl-1H-pyrazol-4-yl)-1H-indazole-3-carboxamide]: the EC50 turned out to be 1340 nM in assay [1], 829 nM in assay [4], 125 nM in assay [5] and 419 nM in assay [6]. Besides, the IC50 is 2 nM in assay [2] and 22 nM in assay [3].

Values taken from patent US10934297B2, “5-heteroaryl substituted indazole-3-carboxamides and preparation and use thereof” (Samumed, LLC, priority 2018, dated 2021).
